# Data: ChEMBL document CHEMBL1201862, “PubChem BioAssay data set” (2004)
#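 Five compound concentrations were applied to cells in 96-well plates for 48 hours; endpoints were derived by simple linear interpolation of the resulting dose-response curve. GI50 is the concentration that inhibits growth by half.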 Calls of active or inactive are those of the source. Rule as the data show it: active = GI50 up to about 1.1 µM and inactive = higher.
# Assays:
# Assay in all cases: inhibition of tumour cell growth, NCI panel, 48 h
# [1] = system: PC-3
# [2] = system: HL-60
# [3] = system: HOP-92
# [4] = system: M14
# [5] = system: RPMI-8226
# [6] = system: SK-MEL-5
# [7] = system: A498
# [8] = system: ACHN
# [9] = system: U-251
# [10] = system: NCI-H23
# [11] = system: OVCAR-3
# [12] = system: HOP-62
# [13] = system: SF-268
# [14] = system: SK-MEL-2
# [15] = system: OVCAR-8
# [16] = system: NCI-H460
# [17] = system: SW-620
# [18] = system: Malme-3M
# [19] = system: SF-539
Structure (SMILES),GI50 [1],GI50 [2],GI50 [3],GI50 [4],GI50 [5],GI50 [6],GI50 [7],GI50 [8],GI50 [9],GI50 [10],GI50 [11],GI50 [12],GI50 [13],GI50 [14],GI50 [15],GI50 [16],GI50 [17],GI50 [18],GI50 [19]
OC(Cc1cccnc1)(c1ccccc1)c1ccccc1,> 100 µM (inactive),55.5 µM (inactive),> 100 µM (inactive),68.1 µM (inactive),42.9 µM (inactive),32.9 µM (inactive),> 100 µM (inactive),> 100 µM (inactive),> 100 µM (inactive),70.8 µM (inactive),> 100 µM (inactive),> 100 µM (inactive),> 100 µM (inactive),> 100 µM (inactive),> 100 µM (inactive),> 100 µM (inactive),> 100 µM (inactive),> 100 µM (inactive),
CCCCc1ccc(-n2sc3ncc(-c4ccccc4)cc3c2=O)cc1,> 100 µM (inactive),> 100 µM (inactive),> 100 µM (inactive),> 100 µM (inactive),> 100 µM (inactive),> 100 µM (inactive),> 100 µM (inactive),> 100 µM (inactive),> 100 µM (inactive),> 100 µM (inactive),> 100 µM (inactive),> 100 µM (inactive),,> 100 µM (inactive),43.2 µM (inactive),> 100 µM (inactive),> 100 µM (inactive),,
CC(C)(CO)CNc1cc(=O)[nH]c(N)n1,> 100 µM (inactive),> 100 µM (inactive),> 100 µM (inactive),> 100 µM (inactive),> 100 µM (inactive),> 100 µM (inactive),> 100 µM (inactive),> 100 µM (inactive),> 100 µM (inactive),> 100 µM (inactive),> 100 µM (inactive),> 100 µM (inactive),> 100 µM (inactive),> 100 µM (inactive),> 100 µM (inactive),> 100 µM (inactive),> 100 µM (inactive),> 100 µM (inactive),
CCCCN1C(=O)c2c(-c3sccc3N)sc(-c3sccc3N)c2C1=O,14.8 µM (inactive),,52 µM (inactive),8.38 µM (inactive),4.47 µM (inactive),29.8 µM (inactive),23.4 µM (inactive),15.7 µM (inactive),12.9 µM (inactive),28 µM (inactive),16 µM (inactive),14.7 µM (inactive),12.3 µM (inactive),32.7 µM (inactive),12.3 µM (inactive),26.1 µM (inactive),> 32.6 µM (inactive),21.6 µM (inactive),12.4 µM (inactive)
Cc1ccnc(Nc2[nH]c(C(=O)c3ccc(Cl)cc3)c(N)c2C(=S)Nc2ccccc2)c1,20.8 µM (inactive),23.8 µM (inactive),17.2 µM (inactive),16.4 µM (inactive),11 µM (inactive),,19.1 µM (inactive),21.7 µM (inactive),15.1 µM (inactive),19.3 µM (inactive),25.8 µM (inactive),20.5 µM (inactive),21.1 µM (inactive),8.59 µM (inactive),12.2 µM (inactive),5.82 µM (inactive),25.9 µM (inactive),13.8 µM (inactive),12.7 µM (inactive)
COc1ccc(C=C2C(C)=NN(c3cccc(Cl)c3)C23C(Cl)C(=O)N3c2nc3ccccc3s2)cc1 (stereo not given),17.2 µM (inactive),2.05 µM (inactive),9.02 µM (inactive),17.2 µM (inactive),2.82 µM (inactive),15.1 µM (inactive),18.5 µM (inactive),21.5 µM (inactive),14.6 µM (inactive),15 µM (inactive),19.4 µM (inactive),20 µM (inactive),4.89 µM (inactive),17.4 µM (inactive),18.9 µM (inactive),24 µM (inactive),5.6 µM (inactive),,30.5 µM (inactive)
N#Cc1c(N)n(-c2nc3ccccc3s2)c(=O)c2cc([N+](=O)[O-])ccc12,5.51 µM (inactive),7.74 µM (inactive),14.1 µM (inactive),23.2 µM (inactive),10.8 µM (inactive),,17.1 µM (inactive),20.3 µM (inactive),19.9 µM (inactive),9.38 µM (inactive),14.8 µM (inactive),7.08 µM (inactive),15 µM (inactive),15.4 µM (inactive),16.8 µM (inactive),6.32 µM (inactive),26.2 µM (inactive),18.7 µM (inactive),12.4 µM (inactive)
COC(=O)C(O)P(=O)(OC)OC (stereo not given),> 100 µM (inactive),> 100 µM (inactive),> 100 µM (inactive),> 100 µM (inactive),> 100 µM (inactive),> 100 µM (inactive),> 100 µM (inactive),> 100 µM (inactive),> 100 µM (inactive),> 100 µM (inactive),> 100 µM (inactive),> 100 µM (inactive),> 100 µM (inactive),> 100 µM (inactive),> 100 µM (inactive),,> 100 µM (inactive),> 100 µM (inactive),
Cc1cc(C)n(C(=O)CSc2nc3ccc(I)cc3c(=O)n2Cc2ccccc2)n1,22.1 µM (inactive),> 100 µM (inactive),15.5 µM (inactive),97.1 µM (inactive),> 100 µM (inactive),25.2 µM (inactive),22.9 µM (inactive),44.5 µM (inactive),35.8 µM (inactive),65.8 µM (inactive),58.6 µM (inactive),31.9 µM (inactive),17.3 µM (inactive),47.4 µM (inactive),24.9 µM (inactive),36.4 µM (inactive),87.1 µM (inactive),,86.9 µM (inactive)
[O-][Cl+3]([O-])([O-])[O-].[O-][Cl+3]([O-])([O-])[O-].c1ccn2c(N3CCCC3)[n+]3c4ccccc4n4c(N5CCCC5)[n+]5ccccc5c4c3c2c1,46.5 µM (inactive),> 100 µM (inactive),73.1 µM (inactive),> 100 µM (inactive),98.6 µM (inactive),22.2 µM (inactive),> 100 µM (inactive),> 100 µM (inactive),28.2 µM (inactive),54.5 µM (inactive),87.5 µM (inactive),,15.3 µM (inactive),39.2 µM (inactive),25.4 µM (inactive),94.4 µM (inactive),> 100 µM (inactive),36.2 µM (inactive),57.9 µM (inactive)
CC(C)=CCC[C@@H](C)C1=CC(=O)C(C)=C(O)C1=O [ISOPEREZONE],5.01 µM (inactive),0.3 µM (active),2.5 µM (inactive),5.25 µM (inactive),0.445 µM (active),6.12 µM (inactive),17 µM (inactive),3.85 µM (inactive),8.79 µM (inactive),6.75 µM (inactive),4.19 µM (inactive),12.9 µM (inactive),10.4 µM (inactive),9.64 µM (inactive),2.15 µM (inactive),16.3 µM (inactive),4.02 µM (inactive),10.2 µM (inactive),
